Holding throughout (assay): microbe, parasite or virus in culture
For assay [1], the system named is T1, Acinetobacter baumannii ATCC 17978.
T1 construct: ATCC 17978
Further details: CLSI broth microdilution MIC; OD600 < 0.05 counted as complete growth inhibition. The note with it: Acinetobacter baumannii, ATCC17978, 18 h; read-out: MIC of ancestor. How it is done:
(§1) A final concentration of 5 × 10^5 bacterial cells per mL were inoculated into each well containing 60 µL MHB medium. Bacterial cultures were incubated at 37 °C with continuous shaking (Infors shaker, 900 rpm with 3 mm throw) for 18 hours (2 replicates from each). Cell growth was monitored by measuring the optical density (OD600 values, using Biotek Synergy microplate reader). MIC was defined as the antibiotic concentration of complete growth inhibition (i.e., OD600 < 0.05). Relative MIC was calculated as follows:1 relativeMIC=MICevolved/MICancestor This study focused on multiple bacterial strains, as follows. For the FoR and ALE experiments, 2 strains per species were chosen: E. coli ATCC 25922, K. pneumoniae ATCC 10031, A. baumannii ATCC 17978, and P. aeruginosa ATCC BAA-3107 as sensitive (SEN) strains, and E. coli NCTC13846, K. pneumoniae ATCC 700603, A. baumannii ATCC BAA-1605 and P. aeruginosa LESB58 as multi-drug resistant (MDR) strains. Functional metagenomic screens were performed with E. coli ATCC 25922 and K. pneumoniae ATCC 10031 strains. To determine the dose-kill properties of the different antibiotics, an E. coli strain (ATCC 25922) expressing a yellow fluorescent protein (pZS2R, YFP, CHL^R) and a red fluorescent protein (pZS2R, mCherry, CHL^R) was used.

Assay [2] relates to T2, Acinetobacter baumannii ATCC BAA 1605.
T2 construct: ATCC BAA-1605
Also on record: CLSI broth microdilution MIC; OD600 < 0.05 counted as complete growth inhibition. The conditions noted are these: Acinetobacter baumannii, BAA1605, 18 h; read-out: MIC of ancestor. How it is done:
as §1

Assay [3] concerns T3, Escherichia coli ATCC 25922.
T3 construct: ATCC 25922
Further details: CLSI broth microdilution MIC; OD600 < 0.05 counted as complete growth inhibition. The note with it: Escherichia coli, ATCC25922, 18 h; read-out: MIC of ancestor. How it is done:
as §1

Assay [4] deals with T4, Klebsiella pneumoniae ATCC 10031.
T4 construct: ATCC 10031
Further details: CLSI broth microdilution MIC; OD600 < 0.05 counted as complete growth inhibition. The conditions noted are these: Klebsiella pneumoniae, ATCC10031, 18 h; read-out: MIC of ancestor. The method, then: as §1

For assay [5], the system named is T5, Escherichia coli NCTC 13846.
T5 construct: NCTC 13846
Further details: CLSI broth microdilution MIC; OD600 < 0.05 counted as complete growth inhibition. The note with it: Escherichia coli, NCTC13846, 18 h; read-out: MIC of ancestor. How it is done:
as §1

For assay [6], the system named is T6, Klebsiella pneumoniae ATCC 700603.
T6 construct: ATCC 700603
Further details: CLSI broth microdilution MIC; OD600 < 0.05 counted as complete growth inhibition. The note with it: Klebsiella pneumoniae, ATCC700603, 18 h; read-out: MIC of ancestor. How it is done:
as §1

The test system of another assay is T7, A. baumannii ATCC 17978.
T7 construct: ATCC 17978
Also on record: Serial broth microdilution MIC (CLSI), OD600 below 0.05, 384-well plates, MHB medium. The conditions noted are these: Acinetobacter baumannii, ATCC17978, 18 h; ancestor strain before evolution. The method, then:
as §1

The test system of another assay is E. coli ATCC 25922. Also on record: Serial broth microdilution MIC (CLSI), OD600 below 0.05, 384-well plates, MHB medium. The note with it: Escherichia coli, ATCC25922, 18 h; ancestor strain before evolution. The method, then: as §1
For a further assay, the system named is T8, E. coli NCTC13846 (MDR).
T8 construct: NCTC 13846
Also on record: Serial broth microdilution MIC (CLSI), OD600 below 0.05, 384-well plates, MHB medium. The conditions noted are these: Escherichia coli, NCTC13846, 18 h; ancestor strain before evolution. The method, then:
as §1

Another assay has as its system T9, K. pneumoniae ATCC 10031.
T9 construct: ATCC 10031
Also on record: Serial broth microdilution MIC (CLSI), OD600 below 0.05, 384-well plates, MHB medium. The conditions noted are these: Klebsiella pneumoniae, ATCC10031, 18 h; ancestor strain before evolution. The method, then: as §1

The test system of assay [7] is T10, K. pneumoniae ATCC 700603 (MDR).
T10 construct: ATCC 700603
Further details: Serial broth microdilution MIC (CLSI), OD600 below 0.05, 384-well plates, MHB medium. The conditions noted are these: Klebsiella pneumoniae, ATCC700603, 18 h; ancestor strain before evolution. How it is done: as §1

Structures are written as SMILES.

With `CC(C)c1ccc(Cn2ccc3c4c(N)nc(NC5CC5)nc4ccc32)cc1` [SCH, SCH79797], the MIC in [1], in assay [2], in assay [3] and in assay [4] was 4 µg/mL throughout.
Consider `C[C@@H](O)[C@H]1C(=O)N2C(C(=O)O)=C(S[C@H]3CC[S@@+]([O-])C3)S[C@H]12` [SUO, sulopenem], for which the MIC in [1] came out at 1 µg/mL; in assay [3], 0.0312 µg/mL; in [5], 0.0312 µg/mL; in assay [4], 0.0312 µg/mL; in assay [6] it was 0.5 µg/mL.
For the molecule `C[C@@H](O)[C@H]1C(=O)N2C(C(=O)O)=C(S[C@H]3CC[S@@+]([O-])C3)S[C@H]12` [sulopenem], the MIC in the assay on A. baumannii ATCC 17978 came to 1 µg/mL; in the assay on E. coli ATCC 25922, 0.0312 µg/mL; in the assay on E. coli NCTC13846 (MDR), 0.0312 µg/mL; in the assay on K. pneumoniae ATCC 10031 it was 0.0312 µg/mL; in [7], 0.5 µg/mL.

Source of the values: article PMC11845477, “Exploring the principles behind antibiotics with limited resistance” (Nature Communications, 2025).
